In brackets after ≈: the same amount, converted by molar mass. Several values for one entry are separate records, joined by “and”; a condition that tells them apart may be missing. Identical values can stand only once.
Tests used:
Candida albicans [1] = experiment: CLSI broth microdilution MIC (Example 4); format: cell-based; settings: for antifungal activity against the two isolates of Candida albicans: summary in words
Protocol: (§1) Antifungal minimum inhibitory concentration (MIC) testing was undertaken as recommended by the CLSI. Briefly, antifungal susceptibility tests were performed for amphotericin B, robenidine (NCL812) and robenidine (NCL) analogs (NCL004, NCL020, NCL023, NCL024, NCL062, NCL094, NCL097, NCL110, NCL113, NCL114, NCL115, NCL135, NCL139, NCL180, NCL181, NCL195, NCL219, NCL220, NCL228, NCL247, NCL250, NCL259, NCL260, NCL263, NCL265, NCL269, NCL274) by standard broth microdilution method (CLSI) in RPMI 1640. Various concentrations (ranging from high to low) of the selected compounds were prepared in RPMI 1640 medium by double dilution in 96-well microtitre plates. Each well contained an inoculum of approximately 2×10^3 cells/mL. The wells without addition of drugs served as negative (no inoculum) and positive (inoculum only) growth controls. Microtitre plates were incubated at 35° C. for 24-48 hours. […] Antifungal MICs were determined for each isolate in duplicate; if the values obtained were different, the MIC test was repeated a third time.

Cryptococcus neoformans [2] = experiment: CLSI broth microdilution MIC (Example 4); format: cell-based
Protocol: as §1

Candida albicans [3] = experiment: CLSI broth microdilution MIC (Example 5); format: cell-based
Protocol: as §1, with “robenidine” for “robenidine (NCL)”, “(NCL23, NCL24, NCL97,” for “(NCL004, NCL020, NCL023, NCL024, NCL062, NCL094, NCL097, NCL110,”, “NCL113,” for “NCL113, NCL114,”, “NCL115,” for “NCL115, NCL135, NCL139, NCL180, NCL181,”, “NCL220,” for “NCL220, NCL228, NCL247, NCL250,”, “NCL265)” for “NCL260, NCL263, NCL265, NCL269, NCL274)”

Cryptococcus neoformans [4] = experiment: CLSI broth microdilution MIC (Example 5); format: cell-based
Protocol: as §1, with “robenidine” for “robenidine (NCL)”, “(NCL23, NCL24, NCL97,” for “(NCL004, NCL020, NCL023, NCL024, NCL062, NCL094, NCL097, NCL110,”, “NCL113,” for “NCL113, NCL114,”, “NCL115,” for “NCL115, NCL135, NCL139, NCL180, NCL181,”, “NCL220,” for “NCL220, NCL228, NCL247, NCL250,”, “NCL265)” for “NCL260, NCL263, NCL265, NCL269, NCL274)”

Candida albicans [5] = experiment: CLSI broth microdilution MIC (Example 6); format: cell-based
Protocol: (§2) Antifungal minimum inhibitory concentration (MIC) testing was undertaken as recommended by the CLSI (1). Briefly, antifungal susceptibility tests were performed for amphotericin B, robenidine (NCL812) and 10 robenidine analogs (NCL023, NCL024, NCL097, NCL113, NCL115, NCL195, NCL219, NCL220, NCL259, NCL265) by standard broth microdilution method (CLSI) in RPMI 1640. Various concentrations (ranging from high to low) of the selected compounds were prepared in RPMI 1640 medium by double dilution in 96-well microtitre plates. Each well contained an inoculum of approximately 2×10^3 cells/mL. The wells without addition of drugs served as negative (no inoculum) and positive (inoculum only) growth controls. Microtitre plates were incubated at 35° C. for 24-48 hours. […] Antifungal MICs were determined for each isolate in duplicate; if the values obtained were different, the MIC test was repeated a third time.

Cryptococcus neoformans [6] = experiment: CLSI broth microdilution MIC (Example 6); format: cell-based
Protocol: as §2

C. gattii = experiment: CLSI broth microdilution MIC (Example 6); format: cell-based, Cryptococcus gattii
Protocol: as §2

[7] = system: Candida albicans ATCC14053; experiment: Broth micro-dilution screen at 16 μg/mL and MIC (Example 9); format: cell-based; settings: for MIC: C. albicans ATCC14053, test range 0.25-64 μg/mL, duplicate; for Screen at 16 μg/mL: single concentration 16 μg/mL, Growth or No growth of C. albicans ATCC14053
Protocol: The antifungal activity of 201 NCL analogs against Candida albicans ATCC14053 in vitro was investigated. A broth micro-dilution method was used, according to CLSI guidelines as described. NCL analogs were dissolved in DMSO and originally screened at a single concentration of 16 μg/mL.

[8] = clinical isolate C. albicans 12-93301752 Azole Resistant
[9] = clinical isolate C. albicans 14-90045999 Azole Resistant
[10] = clinical isolate C. albicans 15-45171061
[11] = clinical isolate C. albicans 15-91329871
[12] = clinical isolate C. albicans 16-24136919 Azole Resistant
[13] = clinical isolate C. albicans 16-46177400
[14] = clinical isolate C. albicans 16-90050810
[15] = clinical isolate C. albicans 16-90054237
[16] = clinical isolate C. albicans 18-144-00196
[17] = clinical isolate C. albicans 18-148-08188 Azole Resistant
[18] = human clinical isolate C. neoformans var grubii 16-90050434
[19] = human clinical isolate C. neoformans var grubii 17-90028233
[20] = human clinical isolate C. neoformans var grubii 17-93996464
[21] = human clinical isolate C. neoformans var grubii 17-93996964
[22] = human clinical isolate C. gatti 17-90232099
[23] = human clinical isolate C. gattii 16-90050373
[24] = human clinical isolate C. gattii 17-90028211
[25] = human clinical isolate C. gattii 17-90028217
[26] = human clinical isolate C. gattii 17-90028242

MIC at 24-48 hours (Candida albicans [1]; Candida albicans ATCC 90028) [µg/mL]	MIC at 24-48 hours (Candida albicans [1]; Candida albicans SA3) [µg/mL]	MIC at 24-48 hours (Cryptococcus neoformans [2]; Cryptococcus neoformans SA1) [µg/mL]	MIC at 24-48 hours (Cryptococcus neoformans [2]; Cryptococcus neoformans SA2) [µg/mL]	MIC (Candida albicans [3]; C. albicans SA3) [µg/mL]	MIC (Candida albicans [3]; Candida albicans ATCC 90028) [µg/mL]	MIC (Candida albicans [3]; [8]) [µg/mL]	MIC (Candida albicans [3]; [9]) [µg/mL]	MIC (Candida albicans [3]; [10]) [µg/mL]	MIC (Candida albicans [3]; [11]) [µg/mL]	MIC (Candida albicans [3]; [12]) [µg/mL]	MIC (Candida albicans [3]; [13]) [µg/mL]	MIC (Candida albicans [3]; [14]) [µg/mL]	MIC (Candida albicans [3]; [15]) [µg/mL]	MIC (Candida albicans [3]; [16]) [µg/mL]	MIC (Candida albicans [3]; [17]) [µg/mL]	MIC (Cryptococcus neoformans [4]; Cryptococcus neoformans SA1) [µg/mL]	MIC (Cryptococcus neoformans [4]; Cryptococcus neoformans SA2) [µg/mL]	SMILES	antifungal activity against the two isolates of Candida albicans (Candida albicans [1])	activity against one or more isolates of Cryptococcus neoformans and Candida albicans (Candida albicans [3]; summary in words)	other results
32 (≈ 87.1 µM)	32 (≈ 87.1 µM)	2 (≈ 5.44 µM)	4 (≈ 10.9 µM)	32 (≈ 87.1 µM)	32 (≈ 87.1 µM)	4 (≈ 10.9 µM)	>16	>16	8 (≈ 21.8 µM)	4 (≈ 10.9 µM)	>16	>16	8 (≈ 21.8 µM)	8 (≈ 21.8 µM)	4 (≈ 10.9 µM)	2 (≈ 5.44 µM)	4 (≈ 10.9 µM)	Nc1nc(NN=Cc2ccc(F)cc2)cc(NN=Cc2ccc(F)cc2)n1 [NCL220]	high antifungal activity	highly active	MIC (Candida albicans [5]; C. albicans SA3): 32 µg/mL (≈ 87.1 µM); MIC (Candida albicans [5]; Candida albicans ATCC 90028): 32 µg/mL (≈ 87.1 µM); MIC (Cryptococcus neoformans [6]; Cryptococcus neoformans SA1): 2 µg/mL (≈ 5.44 µM); MIC (Cryptococcus neoformans [6]; Cryptococcus neoformans SA2): 4 µg/mL (≈ 10.9 µM); MIC (Cryptococcus neoformans [6]; human clinical isolate C. neoformans serotype A/D hybrid): 32 µg/mL (≈ 87.1 µM); MIC (Cryptococcus neoformans [6]; [18]): 32 µg/mL (≈ 87.1 µM); MIC (Cryptococcus neoformans [6]; [19]): >32 µg/mL; MIC (Cryptococcus neoformans [6]; [20]): 32 µg/mL (≈ 87.1 µM); MIC (Cryptococcus neoformans [6]; [21]): 32 µg/mL (≈ 87.1 µM); MIC (C. gattii; [22]): 4 µg/mL (≈ 10.9 µM); MIC (C. gattii; [23]): >32 µg/mL; MIC (C. gattii; [24]): 32 µg/mL (≈ 87.1 µM); MIC (C. gattii; [25]): 4 µg/mL (≈ 10.9 µM); MIC (C. gattii; [26]): 32 µg/mL (≈ 87.1 µM); MIC [7]: >64 µg/mL; Screen at 16 μg/mL [7]: Growth
32	8	16	16	8	32	8	8	4	8	4 to 8	8	8	4	8 to 16	8	16	16	Cl.N=C(NN=Cc1cc(O)c(O)c(O)c1)NN=Cc1cc(O)c(O)c(O)c1 [NCL097]	high antifungal activity	highly active	activity against all tested isolates of Cryptococcus neoformans and Candida albicans (Candida albicans [3]; summary in words): active; MIC (Candida albicans [5]; C. albicans SA3): 8 µg/mL; MIC (Candida albicans [5]; Candida albicans ATCC 90028): 32 µg/mL; MIC (Cryptococcus neoformans [6]; Cryptococcus neoformans SA1): 16 µg/mL; MIC (Cryptococcus neoformans [6]; Cryptococcus neoformans SA2): 16 µg/mL; MIC (Cryptococcus neoformans [6]; human clinical isolate C. neoformans serotype A/D hybrid, listed as NCL97): 16 µg/mL and 32 µg/mL; MIC (Cryptococcus neoformans [6]; [18]): 16 to 32 µg/mL; MIC (Cryptococcus neoformans [6]; [19]): 32 µg/mL; MIC (Cryptococcus neoformans [6]; [20]): 32 µg/mL; MIC (Cryptococcus neoformans [6]; [21]): 32 µg/mL; MIC (C. gattii; [22]): 32 µg/mL; MIC (C. gattii; [23]): 16 µg/mL; MIC (C. gattii; [24]): 16 µg/mL; MIC (C. gattii; [25]): 32 µg/mL; MIC (C. gattii; [26]): 32 µg/mL; MIC [7]: 0.5 µg/mL; Screen at 16 μg/mL [7]: No growth
